Measurements from US20080200454A1, “CARBON-LINKED TETRAHYDRO-PYRAZOLO-PYRIDINE MODULATORS OF CATHEPSIN S” (priority 2007, published 2008).
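Also: Baculovirus-expressed CatS in pH 5.0 sodium acetate buffer with DTT and NaCl, fluorescence read each minute over 20 min, inhibition derived from rate slope.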

What follows are compounds tested against Recombinant human cathepsin S (CatS) (Homo sapiens, UniProt P25774) (assay: Recombinant human cathepsin S (CatS) inhibition assay, fluorogenic substrate Z-Valine-Valine-Arginine-AMC). Settings: not given.
Sequence of Recombinant human cathepsin S (CatS) (P25774 115-331): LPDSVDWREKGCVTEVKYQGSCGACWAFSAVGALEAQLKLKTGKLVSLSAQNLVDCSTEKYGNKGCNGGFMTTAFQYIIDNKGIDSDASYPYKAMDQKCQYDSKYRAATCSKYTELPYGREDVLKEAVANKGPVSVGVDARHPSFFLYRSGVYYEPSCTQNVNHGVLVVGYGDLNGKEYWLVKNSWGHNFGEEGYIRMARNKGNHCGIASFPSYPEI
`Cc1ccsc1CNCc1ccc(C#Cc2cc(-c3nn(CCCN4CCOC[C@@H]4C)c4c3CN(S(C)(=O)=O)CC4)ccc2Cl)cc1` [Example 431, 1-[4-({2-Chloro-5-[1-{3-[(3S)-3-methylmorpholin-4-yl]propyl}-5-(methylsulfonyl)-4,5,6,7-tetrahydro-1H-pyrazolo[4,3-c]pyridin-3-yl]phenyl}ethynyl)phenyl]-N-[(3-methyl-2-thienyl)methyl]methanamine] showed an IC50 of 0.17 µM.
`C[C@H]1COCCN1CCCn1nc(-c2ccc(Cl)c(C#Cc3ccc(Cl)c(C(=O)NC[C@@H]4CCCN4)c3)c2)c2c1CCN(C(=O)C(N)=O)C2` [Example 556, 5-{[5-(5-[Amino(oxo)acetyl]-1-{3-[(3S)-3-methylmorpholin-4-yl]propyl}-4,5,6,7-tetrahydro-1H-pyrazolo[4,3-c]pyridin-3-yl)-2-chlorophenyl]ethynyl}-2-chloro-N-[(2S)-pyrrolidin-2-ylmethyl]benzamide] showed an IC50 of 0.03 µM.
`CS(=O)(=O)N1CCc2c(c(-c3ccc(Cl)c(C#Cc4ccc(Cl)cc4)c3)nn2CC(O)CN2CCCC2)C1` (centres unmarked) [Example 129, 1-{3-[4-Chloro-3-(4-chloro-phenylethynyl)-phenyl]-5-methanesulfonyl-4,5,6,7-tetrahydro-pyrazolo[4,3-c]pyridin-1-yl}-3-pyrrolidin-1-yl-propan-2-ol] showed an IC50 of 0.12 µM.
Work on `CS(=O)(=O)N1CCc2c(c(-c3ccc(Cl)c(C#Cc4ccc(CN[C@@H]5CCCc6ccccc65)cc4)c3)nn2CCCN2CCOCC2)C1` [Example 444, (1R)—N-{[4-({2-Chloro-5-[5-(methylsulfonyl)-1-(3-morpholin-4-ylpropyl)-4,5,6,7-tetrahydro-1H-pyrazolo[4,3-c]pyridin-3-yl]phenyl}ethynyl)phenyl]methyl}-1,2,3,4-tetrahydronaphthalen-1-amine] yielded an IC50 of 0.21 µM.

Same assay, conditions: CatS IC50
In the case of `NC(=O)C(=O)N1CCc2c(c(-c3ccc(Cl)c(C#Cc4ccc(Cl)c(C(=O)N5CCCC5)c4)c3)nn2CCCN2CCSCC2)C1` [Example 567, 2-[3-(4-Chloro-3-{[4-chloro-3-(pyrrolidin-1-ylcarbonyl)phenyl]ethynyl}phenyl)-1-(3-thiomorpholin-4-ylpropyl)-1,4,6,7-tetrahydro-5H-pyrazolo[4,3-c]pyridin-5-yl]-2-oxoacetamide], the IC50 is reported as 0.16 µM.
With `CS(=O)(=O)N1CCc2c(c(-c3ccc(Cl)c(C#Cc4ccc(CNCc5ccccn5)cc4)c3)nn2CCCN2CCOCC2)C1` [Example 408, 1-[4-({2-Chloro-5-[5-(methylsulfonyl)-1-(3-morpholin-4-ylpropyl)-4,5,6,7-tetrahydro-1H-pyrazolo[4,3-c]pyridin-3-yl]phenyl}ethynyl)phenyl]-N-(pyridin-2-ylmethyl)methanamine] the IC50 was 0.28 µM.
In the case of `COc1ccccc1CNCc1ccc(C#Cc2cc(-c3nn(CCCN4CCSCC4)c4c3CN(C(N)=O)CC4)ccc2Cl)cc1` [Example 533, 3-[4-Chloro-3-({4-[({[2-(methyloxy)phenyl]methyl}amino)methyl]phenyl}ethynyl)phenyl]-1-(3-thiomorpholin-4-ylpropyl)-1,4,6,7-tetrahydro-5H-pyrazolo[4,3-c]pyridine-5-carboxamide], the IC50 is reported as 0.1 µM.
For `C[C@H]1COCCN1CCCn1nc(-c2ccc(Cl)c(C#Cc3ccc(Cl)c(C(=O)NCCCO)c3)c2)c2c1CCN(C(=O)C(N)=O)C2` [Example 560, 5-{[5-(5-[Amino(oxo)acetyl]-1-{3-[(3S)-3-methylmorpholin-4-yl]propyl}-4,5,6,7-tetrahydro-1H-pyrazolo[4,3-c]pyridin-3-yl)-2-chlorophenyl]ethynyl}-2-chloro-N-(3-hydroxypropyl)benzamide], the IC50 was 0.02 µM.
`CS(=O)(=O)N1CCc2c(c(-c3ccc(Cl)c(C#Cc4cccc(Cl)c4)c3)nn2CCCN2CCOCC2)C1` [Example 25, 3-[4-Chloro-3-(3-chloro-phenylethynyl)-phenyl]-5-methanesulfonyl-1-(3-morpholin-4-yl-propyl)-4,5,6,7-tetrahydro-1H-pyrazolo[4,3-c]pyridine] was tested, and the IC50 was 0.7 µM.
`CS(=O)(=O)N1CCc2c(c(-c3ccc(Cl)c(C#Cc4ccc(CNCCO)cc4)c3)nn2CCCN2CCOCC2)C1` [Example 469, 2-({[4-({2-Chloro-5-[5-(methylsulfonyl)-1-(3-morpholin-4-ylpropyl)-4,5,6,7-tetrahydro-1H-pyrazolo[4,3-c]pyridin-3-yl]phenyl}ethynyl)phenyl]methyl}amino)ethanol] was tested, and the IC50 was 0.53 µM.
`NC(=O)N1CCc2c(c(-c3ccc(Cl)c(C#Cc4cccc(CNCc5cccc(Cl)c5)c4)c3)nn2CCCN2CCSCC2)C1` [Example 514, 3-(4-Chloro-3-{[3-({[(3-chlorophenyl)methyl]amino}methyl)phenyl]ethynyl}phenyl)-1-(3-thiomorpholin-4-ylpropyl)-1,4,6,7-tetrahydro-5H-pyrazolo[4,3-c]pyridine-5-carboxamide] gave an IC50 of 0.14 µM.
`Cc1ccsc1CNCc1ccc(C#Cc2cc(-c3nn(CCCN4CCOCC4)c4c3CN(S(C)(=O)=O)CC4)ccc2Cl)cc1` [Example 424, 1-[4-({2-Chloro-5-[5-(methylsulfonyl)-1-(3-morpholin-4-ylpropyl)-4,5,6,7-tetrahydro-1H-pyrazolo[4,3-c]pyridin-3-yl]phenyl}ethynyl)phenyl]-N-[(3-methyl-2-thienyl)methyl]methanamine] showed an IC50 of 0.2 µM.
With `CS(=O)(=O)N1CCc2c(c(-c3ccc(Cl)c(C#Cc4ccc(CNCc5ccc(Cl)cc5)cc4)c3)nn2CCCN2CCC(N3CCOCC3)CC2)C1` [Example 343, 1-{4-[(2-Chloro-5-{5-(methylsulfonyl)-1-[3-(4-morpholin-4-ylpiperidin-1-yl)propyl]-4,5,6,7-tetrahydro-1H-pyrazolo[4,3-c]pyridin-3-yl}phenyl)ethynyl]phenyl}-N-[(4-chlorophenyl)methyl]methanamine] the IC50 was 0.04 µM.
With `CS(=O)(=O)N1CCc2c(c(-c3ccc(Cl)c(C#Cc4ccc5c(c4)CNCCC5)c3)nn2CCCN2CCOCC2)C1` [Example 489, 8-({2-Chloro-5-[5-(methylsulfonyl)-1-(3-morpholin-4-ylpropyl)-4,5,6,7-tetrahydro-1H-pyrazolo[4,3-c]pyridin-3-yl]phenyl}ethynyl)-2,3,4,5-tetrahydro-1H-2-benzazepine] the IC50 was 0.48 µM.
Work on `CS(=O)(=O)N1CCc2c(c(-c3ccc(Cl)c(C#Cc4cccc(CNCc5ccc(Cl)cc5)c4)c3)nn2CCCN2C[C@@H]3C[C@H]2CO3)C1` [Example 440, 1-[3-({2-Chloro-5-[5-(methylsulfonyl)-1-{3-[(1S,4S)-2-oxa-5-azabicyclo[2.2.1]hept-5-yl]propyl}-4,5,6,7-tetrahydro-1H-pyrazolo[4,3-c]pyridin-3-yl]phenyl}ethynyl)phenyl]-N-[(4-chlorophenyl)methyl]methanamine] yielded an IC50 of 0.39 µM.
In the case of `CS(=O)(=O)N1CCc2c(c(-c3ccc(Cl)c(C#Cc4ccc(CNCc5ccc(Cl)cc5)cc4)c3)nn2CCCN2CCCNCC2)C1` [Example 391, 1-{4-[(2-Chloro-5-{1-[3-(1,4-diazepan-1-yl)propyl]-5-(methylsulfonyl)-4,5,6,7-tetrahydro-1H-pyrazolo[4,3-c]pyridin-3-yl}phenyl)ethynyl]phenyl}-N-[(4-chlorophenyl)methyl]methanamine], the IC50 is reported as 0.26 µM.
In the case of `CS(=O)(=O)N1CCc2c(c(-c3ccc(Cl)c(C#Cc4ccc(CNCC(F)(F)F)cc4)c3)nn2CCCN2CCOCC2)C1` [Example 340, N-{[4-({2-Chloro-5-[5-(methylsulfonyl)-1-(3-morpholin-4-ylpropyl)-4,5,6,7-tetrahydro-1H-pyrazolo[4,3-c]pyridin-3-yl]phenyl}ethynyl)phenyl]methyl}-2,2,2-trifluoroethanamine], the IC50 is reported as 0.39 µM.
